# According to ChEMBL document CHEMBL5365410, “SAR of L-ABBA analogs for GGT1 inhibitory activity and L-ABBA's effect on plasma cysteine and GSH species” (Bioorg Med Chem Lett, 2023):
# pKi: −log10 of the molar value. Calls of active or inactive are those of the source. No cut-off for these calls is given here.
# Columns and labels:
# [1] = Inhibition of bovine GGT1 assessed as GSH hydrolysis by measuring inhibition constant; design: species or system Bos taurus
# [2] = Inhibition of bovine GGT1 transpeptidation assessed as inhibition constant; design: species or system Bos taurus
# [3] = target: T1, Glutathione hydrolase 1 proenzyme (Homo sapiens, UniProt P19440); test: Inhibition of GGT1 (unknown origin) assessed as GSH hydrolysis by measuring inhibition constant
# [4] = target: T1, Glutathione hydrolase 1 proenzyme; test: Inhibition of GGT1 (unknown origin) transpeptidation at 9100 uM using L-GpNA as substrate in presence of Gly-Gly relative to control
# [5] = target: T1, Glutathione hydrolase 1 proenzyme; test: Inhibition of GGT1 (unknown origin) assessed as GSH hydrolysis at […] relative to control
# [6] = target: T1, Glutathione hydrolase 1 proenzyme; test: Inhibition of GGT1 (unknown origin) transpeptidation at 37500 uM using L-GpNA as substrate in presence of Gly-Gly relative to control
# [7] = In-vivo inhibition of GGT1 in mouse assessed as increase in GSH-NEM level in plasma at 0.03 mg measured after 6 hrs; type: functional; details: values are per cent of control
# [8] = Clearance in C57BL/6 mouse at 0.3 mg/kg, ip; type: ADME, organism-based; details: in vivo
# [9] = In-vivo inhibition of GGT1 in mouse assessed as increase in cystine-NEM level in plasma measured after 1 hrs; type: functional
# Mus musculus [10] = test: In-vivo inhibition of GGT1 in mouse assessed as effect on cysteine level in plasma at 0.2 to 1 mg; type: functional; details: dose 0.2-1 mg, time 0.5-48 hrs, TDE = time-dependent effect
# [11] = In-vivo inhibition of GGT1 in mouse assessed as decrease in cysteine level in plasma at 0.03 mg measured after 1 hrs; type: functional
# [12] = In-vivo inhibition of GGT1 in mouse assessed as decrease in GSH level in plasma at 0.03 mg measured at 24 hrs; type: functional
# Mus musculus [13] = test: In-vivo inhibition of GGT1 in mouse assessed as effect on cysteine level in plasma measured at 0.5 to 48 hrs; type: functional; details: dose 0.2-1 mg, time 0.5-48 hrs
# [14] = In-vivo inhibition of GGT1 in mouse assessed as increase in total GSH level in plasma at 0.03 mg measured after 6 hrs; type: functional; details: values are per cent of control
# [15] = In-vivo inhibition of GGT1 in mouse assessed as increase in GSH level in plasma at 0.03 to 1 mg measured after 1 hrs; type: functional; details: dose 0.03-1 mg, values are per cent of control
# [16] = Half life in C57BL/6 mouse at 0.3 mg/kg, ip; type: ADME, organism-based; details: in vivo
# [17] = target: T1, Glutathione hydrolase 1 proenzyme; test: Inhibition of GGT1 (unknown origin) transpeptidation assessed as inhibition constant using L-GpNA as substrate in presence of Gly-Gly
# Mus musculus [18] = test: In-vivo inhibition of GGT1 in mouse assessed as decrease in total cysteine level in plasma at 0.03 mg measured after 48 hrs; type: functional
# Mus musculus [19] = test: In-vivo inhibition of GGT1 in mouse assessed as effect on GSH level in plasma at 0.2 to 1 mg; type: functional; details: dose 0.2-1 mg, time 0.5-48 hrs, TDE = time-dependent effect
# [20] = In-vivo inhibition of GGT1 in mouse assessed as increase in cystine level in plasma measured after 1 hrs; type: functional
# [21] = In-vivo inhibition of GGT1 in mouse assessed as increase in GSSG level in plasma at 0.03 mg measured after 1 hrs; type: functional; details: values are per cent of control
# [22] = Volume of distribution at steady in C57BL/6 mouse at 0.3 mg/kg, ip; type: ADME, organism-based; details: in vivo
# [23] = Cmax in C57BL/6 mouse at 0.3 mg/kg, ip; type: ADME, organism-based; design: dose 0.3 mg/kg, route ip; details: in vivo
# Mus musculus [24] = test: In-vivo inhibition of GGT1 in mouse assessed as increase in GSH level in plasma at 0.03 mg measured after 48 hrs; type: functional
# [25] = In-vivo inhibition of GGT1 in mouse assessed as decrease in GSH level in plasma at 0.03 mg measured after 1 hr; type: functional
# [26] = In-vivo inhibition of GGT1 in mouse assessed as decrease in GSH level in plasma at 0.03 mg measured at 48 hrs; type: functional
# [27] = MRT in C57BL/6 mouse at 0.3 mg/kg, ip; type: ADME, organism-based; details: in vivo
# Mus musculus [28] = test: In-vivo inhibition of GGT1 in mouse assessed as effect on GSSG level in plasma measured at 0.5 to 48 hrs; type: functional; details: dose 0.2-1 mg, time 0.5-48 hrs
# [29] = In-vivo inhibition of GGT1 in mouse assessed as decrease in GSH level in plasma at 0.03 mg measured at 24 to 48 hrs; type: functional; details: time 24-48 hrs
# [30] = In-vivo inhibition of GGT1 in mouse assessed as increase in GSSG level in plasma at 0.03 mg measured after 6 hrs; type: functional; details: values are per cent of control
# [31] = In-vivo inhibition of GGT1 in mouse assessed as decrease in total cysteine level in plasma at 0.03 mg measured after 1 hrs; type: functional
# Mus musculus [32] = test: In-vivo inhibition of GGT1 in mouse assessed as effect on GSH level in plasma measured at 0.5 to 48 hrs; type: functional; details: dose 0.2-1 mg, time 0.5-48 hrs
# Mus musculus [33] = test: In-vivo inhibition of GGT1 in mouse assessed as effect on GSSG level in plasma at 0.2 to 1 mg; type: functional; details: dose 0.2-1 mg, time 0.5-48 hrs, TDE = time-dependent effect
# [34] = In-vivo inhibition of GGT1 in mouse assessed as decrease in cystine level in plasma at 0.03 mg measured after 1 hrs; type: functional
# T1 sequence (P19440 1-380 limits assumed): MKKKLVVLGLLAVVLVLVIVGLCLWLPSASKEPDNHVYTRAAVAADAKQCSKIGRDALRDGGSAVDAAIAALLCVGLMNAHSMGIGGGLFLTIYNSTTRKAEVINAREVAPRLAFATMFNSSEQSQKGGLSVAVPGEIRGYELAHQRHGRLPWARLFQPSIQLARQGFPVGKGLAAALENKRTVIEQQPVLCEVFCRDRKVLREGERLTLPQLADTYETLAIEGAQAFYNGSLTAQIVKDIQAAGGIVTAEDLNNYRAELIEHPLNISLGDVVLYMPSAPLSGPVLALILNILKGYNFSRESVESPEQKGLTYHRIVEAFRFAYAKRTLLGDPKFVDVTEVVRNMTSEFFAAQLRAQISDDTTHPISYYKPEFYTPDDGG
# T1 sequence (P19440 381-569 limits assumed): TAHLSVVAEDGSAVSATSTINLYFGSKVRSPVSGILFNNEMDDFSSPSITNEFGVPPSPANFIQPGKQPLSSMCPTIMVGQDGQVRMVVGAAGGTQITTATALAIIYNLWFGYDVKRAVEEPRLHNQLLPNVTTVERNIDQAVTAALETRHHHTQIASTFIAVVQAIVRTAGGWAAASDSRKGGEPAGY
compound,measurement,setting,value
N[C@H](CCB(O)O)C(=O)O,pKi,[1],7.11
same,pKi,[2],7.35
NCCCB(O)O,pKi,[3],< 2.30
same,inhibition,[4],inactive
O=C(O)CCCB(O)O,inhibition,[5],50%
same,inhibition,[6],50%
N[C@@H](CCB(O)O)C(=O)O,"response, % of control",[7],500%
same,CL/F,[8],0.0612 mL/min
same,ID50,[9],0.22 mg
same,inhibition,Mus musculus [10],Tde
same,inhibition (INH),[11],25%
same,inhibition (INH),[12],<50%
same,inhibition,Mus musculus [13],Dose-Dependent Effect
same,"response, % of control",[14],1000%
same,"response, % of control",[15],250%
same,half-life,[16],3.92 h
same,pKi,[17],8.30
same,inhibition,Mus musculus [18],Active
same,inhibition,Mus musculus [19],Tde
same,ID50,[20],0.002 mg
same,"response, % of control",[21],1000%
same,Vdss,[22],20.76 mL
same,Cmax,[23],15.3 µg/mL
same,inhibition,Mus musculus [24],Active
same,pKi,[1],7.60
same,inhibition (INH),[25],85%
same,inhibition (INH),[26],89%
same,MRT,[27],5.42 h
same,inhibition,Mus musculus [28],Dose-Dependent Effect
same,inhibition (INH),[29],33%
same,"response, % of control",[30],1500%
same,pKi,[2],8.30
same,inhibition (INH),[31],35%
same,inhibition,Mus musculus [32],Dose-Dependent Effect
same,inhibition,Mus musculus [33],Tde
same,inhibition (INH),[34],75%
CC(N)(CCB(O)O)C(=O)O (racemic),pKi,[3],5.55
same,pKi,[17],6.04
COc1ccc(Cc2nnc(NS(=O)(=O)c3ccccc3)s2)cc1,pKi,[17],4.17
CCC(N)(CCB(O)O)C(=O)O (racemic),pKi,[3],3.06
same,pKi,[17],3.35
N[C@@H](CCCB(O)O)C(=O)O,pKi,[3],< 2.40
same,pKi,[17],2.42
CCCC(N)(CCB(O)O)C(=O)O (racemic),pKi,[3],3.15
same,pKi,[17],3.70
